According to publication PMC5081701, “Identification of New Structural Fragments for the Design of Lactate Dehydrogenase A Inhibitors” (Acta Naturae, 2016):

Biological target: T1, LDH from rabbit muscle (LDH-A) (Oryctolagus cuniculus, UniProt P13491)
T1 construct: gene LDHA; native commercial enzyme from rabbit muscle (Sigma-Aldrich), homotetramer
Experiment: spectrophotometric NADH absorbance decrease at […] nm, initial rate
Type: biochemical

Compound: O=S(=O)(O)CCSc1nc2ccccc2s1 [compound 4, 2-(benzothiazol-2-ylsulfanyl)-ethanesulfonate]
- IC50: 1200 µM
